Data reported in patent US5591741A, “Fungicidal spiroheterocyclic derivatives” (American Cyanamid Company, priority 1993, dated 1997).

Legend:
Settings in all cases: Table VIa; host plants sprayed; solution of 400 ppm and dilutions
[1] = tested on: Erysiphe graminis f. sp. tritici; assay: In vivo fungicidal activity, Wheat Powdery Mildew (WPM)
Alternaria solani = assay: In vivo fungicidal activity, Tomato Early Blight (TEB); note: ranges in brackets are in %
Septoria nodorum = assay: In vivo fungicidal activity, Wheat Blotch (WSN)
Experimental: Test compounds are dissolved in acetone and diluted with deionized water containing about 0.05% TWEEN 20®, a polyoxyethylene sorbitan monolaurate surfactant manufactured by Atlas Chemical Industries, to give a concentration of 400 ppm. Subsequent dilutions are made with an 0.05% aqueous solution of TWEEN 20®.
Host plants are sprayed with test solution, dried and inoculated with fungi. When disease symptom development is optimal, the plants are rated for disease control according to the rating scale shown below. Each test contains inoculated treated plants, inoculated untreated plants and a reference standard. When more than one test is run, the data are averaged.

Cercospora beticola = assay: In vivo fungicidal activity, Sugar Beet Cercospora (SBC); note: ranges in brackets are in %
Plasmopara viticola = assay: In vivo fungicidal activity, Grape Downy Mildew (GDM); note: ranges in brackets are in %
Pyricularia oryzae = type: in vivo
Botrytis cinerea = assay: In vivo fungicidal activity, Pepper Botrytis (PB); note: ranges in brackets are in %
Venturis inaequalis = assay: In vivo fungicidal activity, Apple Scab (AS)

Question: Which “disease control rating WPM” value [1] does the source give for `CC(C)(C)C1CCC2(CC1)CC(CCN1CCCCC1)CO2` (centres unmarked) [Compound 203] here?
Answer: Its value is 8 (96-99).

Question: And the “disease control rating TEB” value (Alternaria solani)?
Answer: The value was 6 (75-89).

Question: And the “disease control rating WSN” value (Septoria nodorum)?
Answer: The value was 6 (75-89).

Question: And the “disease control rating SBC” value (Cercospora beticola)?
Answer: Its value is 8 (96-99).

Question: What about the “disease control rating GDM” value (Plasmopara viticola) of the same compound?
Answer: The value was 0 (0).

Question: And the “disease control rating RB” value (Pyricularia oryzae)?
Answer: The value was 0 (0).

Question: What about the “disease control rating PB” value (Botrytis cinerea) of the same compound?
Answer: Its value is 8 (96-99).

Question: What about the “disease control rating AS (Apple Scab)” value (Venturis inaequalis) of the same compound?
Answer: Its value is 0 (0).
